Assay results taken from article doi:10.1101/2025.06.22.660908v1 (biorxiv, 2025).

What was measured:
hERG = hERG (Homo sapiens, UniProt Q12809, species not given); assay: hERG inhibition; format: cell-based
Recombinant human TREM2 = target: T1, Recombinant human TREM2 (Homo sapiens, UniProt Q9NZC2); assay: microscale thermophoresis; format: binding
T1 sequence (Q9NZC2 19-174 limits assumed): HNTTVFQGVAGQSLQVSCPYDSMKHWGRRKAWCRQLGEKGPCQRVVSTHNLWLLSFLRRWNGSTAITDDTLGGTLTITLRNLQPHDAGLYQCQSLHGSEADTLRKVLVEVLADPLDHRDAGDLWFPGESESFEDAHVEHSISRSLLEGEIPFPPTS

hERG, sequence (Q12809 whole entry): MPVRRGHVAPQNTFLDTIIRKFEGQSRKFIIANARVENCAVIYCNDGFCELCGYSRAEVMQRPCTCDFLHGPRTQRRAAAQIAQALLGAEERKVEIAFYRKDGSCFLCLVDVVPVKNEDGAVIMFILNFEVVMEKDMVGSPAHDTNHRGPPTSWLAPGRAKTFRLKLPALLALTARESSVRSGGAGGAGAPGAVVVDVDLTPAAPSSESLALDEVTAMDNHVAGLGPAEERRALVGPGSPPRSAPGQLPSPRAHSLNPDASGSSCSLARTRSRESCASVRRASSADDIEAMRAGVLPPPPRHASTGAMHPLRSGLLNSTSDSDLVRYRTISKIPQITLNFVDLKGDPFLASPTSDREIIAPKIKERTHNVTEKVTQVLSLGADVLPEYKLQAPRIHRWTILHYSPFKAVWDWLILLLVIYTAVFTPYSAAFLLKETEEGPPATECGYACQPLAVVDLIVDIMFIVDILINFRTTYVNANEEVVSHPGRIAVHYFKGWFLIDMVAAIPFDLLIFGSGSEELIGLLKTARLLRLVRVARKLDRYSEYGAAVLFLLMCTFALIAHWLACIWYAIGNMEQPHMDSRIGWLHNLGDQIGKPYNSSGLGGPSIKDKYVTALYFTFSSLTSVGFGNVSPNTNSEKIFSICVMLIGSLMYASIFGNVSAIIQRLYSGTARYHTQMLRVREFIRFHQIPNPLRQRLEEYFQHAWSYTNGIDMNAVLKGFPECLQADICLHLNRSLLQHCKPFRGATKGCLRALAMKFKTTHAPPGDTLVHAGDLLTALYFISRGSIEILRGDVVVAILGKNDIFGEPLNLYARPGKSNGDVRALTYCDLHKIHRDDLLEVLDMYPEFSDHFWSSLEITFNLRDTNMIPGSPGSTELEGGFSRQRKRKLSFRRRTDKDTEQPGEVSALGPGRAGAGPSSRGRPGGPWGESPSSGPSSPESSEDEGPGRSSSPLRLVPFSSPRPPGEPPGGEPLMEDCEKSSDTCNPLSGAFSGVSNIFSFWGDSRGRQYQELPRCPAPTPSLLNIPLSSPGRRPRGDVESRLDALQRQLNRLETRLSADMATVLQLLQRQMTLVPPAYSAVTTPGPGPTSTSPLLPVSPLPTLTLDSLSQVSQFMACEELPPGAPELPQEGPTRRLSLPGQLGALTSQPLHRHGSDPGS

`Cc1nc2cc(C3=CC(c4cnn(C)c4)OCC3)nc(-c3ccc(Cl)cc3F)c2nc1C` (stereo not drawn) [C1] was tested, and the IC50 (hERG) was over 100 µM and the Kd (Recombinant human TREM2) was 71.4 ± 4.06 µM.

In the case of `Cc1nc2cc([C@H]3CCO[C@@H](c4cnn(C)c4)C3)nc(-c3ccc(Cl)cc3F)c2nc1C` [VG-3927], the IC50 (hERG) is reported as over 100 µM.
